Results as given in patent US12606566B2, “Substituted cyclopenta[4,5]pyrrolo[1,2-a]pyrazines as bruton's tyrosine kinase inhibitors” (Shanghai Synergy Pharmaceutical Sciences Co., Ltd., priority 2020, dated 2026).

Experiments:
BTK kinase = BTK kinase (Homo sapiens, UniProt Q06187); assay: BTK kinase inhibitory activity, mobility shift method; format: biochemical; settings: compound co-incubated with the enzyme for 30 minutes
Experimental: The BTK kinase inhibitory activity of the compound was determined using a mobility shift method with the reaction system (kinase solution, ATP, kinase substrate2). The compound was co-incubated with the enzyme for 30 minutes, and then the conversion rate was read using the Caliper EZ reader. The compound inhibition rate was determined using the calculation formula and the data was fitted using Graphpad to derive the IC50 value for the compounds of this application.

[1] = system: tumour cells (A20 5E6 cells); assay: Inhibitory effect on tumour cell proliferation (CCK8); format: cell-based; settings: CCK8 absorbance, read-out: Inhibitory effect of the compound on cell proliferation IC50
Experimental: This experiment was to determine the effect of the compound on cell proliferation.
To determine the inhibitory effect of the compound on the proliferation of tumour cells, tumour cells (A20 5E6 cells) were cultured to a certain amount and seeded into 96-well plates. […] The absorbance value was measured after the addition of CCK8 and 2 h incubation to determine the inhibitory effect of the compound on cell proliferation. The IC50 value of the compound was obtained by data fitted with Graphpad.

BTK kinase, sequence (Q06187 whole entry): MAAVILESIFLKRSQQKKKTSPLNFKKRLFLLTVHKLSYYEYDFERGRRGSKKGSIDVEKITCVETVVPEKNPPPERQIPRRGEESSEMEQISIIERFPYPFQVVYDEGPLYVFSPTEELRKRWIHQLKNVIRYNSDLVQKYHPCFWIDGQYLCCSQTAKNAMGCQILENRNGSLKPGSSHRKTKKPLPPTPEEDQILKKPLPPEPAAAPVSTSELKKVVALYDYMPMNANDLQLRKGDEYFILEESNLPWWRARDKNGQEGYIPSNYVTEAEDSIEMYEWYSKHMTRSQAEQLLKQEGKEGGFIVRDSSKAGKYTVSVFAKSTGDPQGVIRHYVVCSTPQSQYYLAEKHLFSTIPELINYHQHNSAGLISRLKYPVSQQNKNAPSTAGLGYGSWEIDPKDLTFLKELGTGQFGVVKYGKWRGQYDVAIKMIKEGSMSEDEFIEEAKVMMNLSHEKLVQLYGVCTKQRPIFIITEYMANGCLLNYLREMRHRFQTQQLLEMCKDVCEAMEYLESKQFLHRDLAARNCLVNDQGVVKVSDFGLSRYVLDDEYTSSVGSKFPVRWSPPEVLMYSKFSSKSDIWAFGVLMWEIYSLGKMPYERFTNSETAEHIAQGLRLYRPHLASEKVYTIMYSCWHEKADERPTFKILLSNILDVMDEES

Row | Compound | IC50 (BTK kinase) | IC50 [1]
1 | Cn1cc(-c2ccnc(N3CCn4c5c(c(F)c4C3=O)CC(C)(C)C5)c2CO)cc(Nc2ccc(N3CCC4(CC3)COC4)cn2)c1=O [Example H11, 2-(5-((5-(2-oxa-7-azaspiro[3.5]nonan-7-yl)pyridin-2-yl)amino)-3′-(hydroxymethyl)-1-methyl-6-oxo-1,6-dihydro-[3,4′-bipyridin]-2′-yl)-9-fluoro-7,7-dimethyl-3,4,7,8-tetrahydro-2H-cyclopenta[4,5]pyrrolo[1,2-a]pyrazin-1(6H)-one] | 0.26 nM | 13 nM
2 | Cn1cc(-c2ccnc(N3CCn4c5c(c(F)c4C3=O)CC(C)(C)C5)c2CO)cc(Nc2ccc(N3CCC4(CC3)CC(O)C4)cn2)c1=O [Example H13, 9-fluoro-2-(5-((5-(2-hydroxy-7-azaspiro[3.5]nonan-7-yl)pyridin-2-yl)amino)-3′-(hydroxymethyl)-1-methyl-6-oxo-1,6-dihydro-[3,4′-bipyridin]-2′-yl)-7,7-dimethyl-3,4,7,8-tetrahydro-2H-cyclopenta[4,5]pyrrolo[1,2-a]pyrazin-1(6H)-one] | 0.18 nM | 19 nM
3 | Cn1cc(-c2ccnc(N3CCn4c5c(c(F)c4C3=O)CC(C)(C)C5)c2CO)cc(Nc2ccc(N3CCN(C4COC4)CC3)cc2)c1=O [Example H15, 9-fluoro-2-(3′-(hydroxymethyl)-1-methyl-5-((4-(4-(oxetan-3-yl)piperazin-1-yl)phenyl)amino)-6-oxo-1,6-dihydro-[3,4′-bipyridin]-2′-yl)-7,7-dimethyl-3,4,7,8-tetrahydro-2H-cyclopenta[4,5]pyrrolo[1,2-a]pyrazin-1(6H)-one] | 0.68 nM | 23 nM
4 | Cn1cc(-c2ccnc(N3CCn4c5c(c(F)c4C3=O)CC(C)(C)C5)c2CO)cc(Nc2ccc(N3CCN(C4COC4)CC3)nc2)c1=O [Example H16, 9-fluoro-2-(3′-(hydroxymethyl)-1-methyl-5-((6-(4-(oxetan-3-yl)piperazin-1-yl)pyridin-3-yl)amino)-6-oxo-1,6-dihydro-[3,4′-bipyridin]-2′-yl)-7,7-dimethyl-3,4,7,8-tetrahydro-2H-cyclopenta[4,5]pyrrolo[1,2-a]pyrazin-1(6H)-one] | 0.17 nM | 47 nM

Continued, values first:

Row | IC50 (BTK kinase) | IC50 [1] | Compound
5 | 0.49 nM | 13 nM | CN1CC2(CCN(c3ccc(Nc4cc(-c5ccnc(N6CCn7c8c(c(F)c7C6=O)CC(C)(C)C8)c5CO)cn(C)c4=O)nc3)CC2)C1 [Example H12, 9-fluoro-2-(3′-(hydroxymethyl)-1-methyl-5-((5-(2-methyl-2,7-diazaspiro[3.5]nonan-7-yl)pyridin-2-yl)amino)-6-oxo-1,6-dihydro-[3,4′-bipyridin]-2′-yl)-7,7-dimethyl-3,4,7,8-tetrahydro-2H-cyclopenta[4,5]pyrrolo[1,2-a]pyrazin-1(6H)-one]
6 | 0.27 nM | 47 nM | CN1CCN(c2ccc(Nc3cc(-c4ccnc(N5CCn6c7c(c(F)c6C5=O)CC(C)(C)C7)c4CO)cn(C)c3=O)nc2)CC1 [Example H14, 9-fluoro-2-(3′-(hydroxymethyl)-1-methyl-5-((5-(4-methylpiperazin-1-yl)pyridin-2-yl)amino)-6-oxo-1,6-dihydro-[3,4′-bipyridin]-2′-yl)-7,7-dimethyl-3,4,7,8-tetrahydro-2H-cyclopenta[4,5]pyrrolo[1,2-a]pyrazin-1(6H)-one]
